Laboratory results from ChEMBL document CHEMBL3885861, “Open TG-GATES”.

Species: Rattus norvegicus
Test: Open TG-GATES - Regimen: Daily Repeat
Assay type: toxicity, organism-based, Sprague-Dawley
Design: regimen Daily Repeat, gender Male, age 6 weeks
Conditions: in vivo, po, 100 mg/kg, route gavage, dose level High; for APTT / Bas / Eos / Fbg / Hb / Ht / Lym / MCH / MCHC / MCV / Mono / Neu / PT / Plat / RBC / Ret / WBC: tissue Blood; for KIDNEY_L / KIDNEY_R / KIDNEY_TOTAL: tissue Kidney; for LIVER: tissue Liver; for A/G / ALP / ALT / AST / BUN / CRE / Ca / Cl / DBIL / GLC / IP / K / LDH / Na / PL / RALB / TBIL / TC / TG / TP / gamma-GTP: tissue Plasma

CN(C)CCN(Cc1cccs1)c1ccccn1
TERMINAL_BW (72 h, time 3 day): 205.4 g | APTT (72 h, time 3 day): 20.1 s | Bas (72 h, time 3 day): 0% | Eos (72 h, time 3 day): 1% | Fbg (72 h, time 3 day): 285.6 mg/dL | Hb (72 h, time 3 day): 13 g/dL | Ht (72 h, time 3 day): 38.7% | Lym (72 h, time 3 day): 75.2% | MCH (72 h, time 3 day): 20.8 pg | MCHC (72 h, time 3 day): 33.7% | MCV (72 h, time 3 day): 61.8 fL | Mono (72 h, time 3 day): 2.2% | Neu (72 h, time 3 day): 20.8% | PT (72 h, time 3 day): 15.9 s | Plat (72 h, time 3 day): 132.3 x10_4/uL | RBC (72 h, time 3 day): 626.8 x10_4/ul | Ret (72 h, time 3 day): 4.7% | WBC (72 h, time 3 day): 84.8 x10_2/uL | KIDNEY_L (72 h, time 3 day): 0.9 g | KIDNEY_R (72 h, time 3 day): 1 g | KIDNEY_TOTAL (72 h, time 3 day): 1.9 g | LIVER (72 h, time 3 day): 10.6 g | A/G (72 h, time 3 day): 1.2 | ALP (72 h, time 3 day): 1934 IU/L | ALT (72 h, time 3 day): 61.2 IU/L | AST (72 h, time 3 day): 106.4 IU/L | BUN (72 h, time 3 day): 16.6 mg/dL | CRE (72 h, time 3 day): 0.2 mg/dL | Ca (72 h, time 3 day): 10.9 mg/dL | Cl (72 h, time 3 day): 107 meq/L | DBIL (72 h, time 3 day): 0.01 mg/dL | GLC (72 h, time 3 day): 160.2 mg/dL | IP (72 h, time 3 day): 7.6 mg/dL | K (72 h, time 3 day): 4.4 meq/L | LDH (72 h, time 3 day): 202.2 IU/L | Na (72 h, time 3 day): 142.2 meq/L | PL (72 h, time 3 day): 161.2 mg/dL | RALB (72 h, time 3 day): 2.8 g/dL | TBIL (72 h, time 3 day): 0.028 mg/dL | TC (72 h, time 3 day): 91.8 mg/dL | TG (72 h, time 3 day): 49 mg/dL | TP (72 h, time 3 day): 5.2 g/dL | gamma-GTP (72 h, time 3 day): 2 IU/L | TERMINAL_BW ([…], time 7 day): 222.8 g | TERMINAL_BW ([…], time 14 day): 237.7 g | TERMINAL_BW ([…], time 28 day): 237.4 g | APTT ([…], time 7 day): 18.6 s | Bas ([…], time 7 day): 0% | Eos ([…], time 7 day): 0.6% | Fbg ([…], time 7 day): 247 mg/dL | Hb ([…], time 7 day): 14.2 g/dL | Ht ([…], time 7 day): 42.3% | Lym ([…], time 7 day): 80.4% | MCH ([…], time 7 day): 20.5 pg | MCHC ([…], time 7 day): 33.5% | MCV ([…], time 7 day): 61.2 fL | Mono ([…], time 7 day): 2.4% | Neu ([…], time 7 day): 15.4% | PT ([…], time 7 day): 15.9 s | Plat ([…], time 7 day): 123.2 x10_4/uL | RBC ([…], time 7 day): 691.6 x10_4/ul | Ret ([…], time 7 day): 3.7% | WBC ([…], time 7 day): 124.5 x10_2/uL | APTT ([…], time 14 day): 21.1 s | Bas ([…], time 14 day): 0% | Eos ([…], time 14 day): 0.2% | Fbg ([…], time 14 day): 177.8 mg/dL | Hb ([…], time 14 day): 15.1 g/dL | Ht ([…], time 14 day): 44.1% | Lym ([…], time 14 day): 74% | MCH ([…], time 14 day): 19.5 pg | MCHC ([…], time 14 day): 34.3% | MCV ([…], time 14 day): 56.9 fL | Mono ([…], time 14 day): 3.2% | Neu ([…], time 14 day): 21.4% | PT ([…], time 14 day): 18.3 s | Plat ([…], time 14 day): 117.4 x10_4/uL | RBC ([…], time 14 day): 775 x10_4/ul | Ret ([…], time 14 day): 2.4% | WBC ([…], time 14 day): 140.8 x10_2/uL | APTT ([…], time 28 day): 24.5 s | Bas ([…], time 28 day): 0% | Eos ([…], time 28 day): 0.5% | Fbg ([…], time 28 day): 140.8 mg/dL | Hb ([…], time 28 day): 16.7 g/dL | Ht ([…], time 28 day): 48.9% | Lym ([…], time 28 day): 53.8% | MCH ([…], time 28 day): 18.1 pg | MCHC ([…], time 28 day): 34.1% | MCV ([…], time 28 day): 53 fL | Mono ([…], time 28 day): 5% | Neu ([…], time 28 day): 39.8% | PT ([…], time 28 day): 20.1 s | Plat ([…], time 28 day): 79.2 x10_4/uL | RBC ([…], time 28 day): 924.8 x10_4/ul | Ret ([…], time 28 day): 2.1% | WBC ([…], time 28 day): 178.3 x10_2/uL | KIDNEY_L ([…], time 7 day): 1 g | KIDNEY_R ([…], time 7 day): 1 g | KIDNEY_TOTAL ([…], time 7 day): 2 g | KIDNEY_L ([…], time 14 day): 1.1 g | KIDNEY_R ([…], time 14 day): 1.1 g | KIDNEY_TOTAL ([…], time 14 day): 2.1 g | KIDNEY_L ([…], time 28 day): 1.1 g | KIDNEY_R ([…], time 28 day): 1.1 g | KIDNEY_TOTAL ([…], time 28 day): 2.2 g | LIVER ([…], time 7 day): 11.6 g | LIVER ([…], time 14 day): 10.6 g | LIVER ([…], time 28 day): 9.7 g | A/G ([…], time 7 day): 1.1 | ALP ([…], time 7 day): 2330.2 IU/L | ALT ([…], time 7 day): 145.2 IU/L | AST ([…], time 7 day): 324.2 IU/L | BUN ([…], time 7 day): 19 mg/dL | CRE ([…], time 7 day): 0.2 mg/dL | Ca ([…], time 7 day): 10.4 mg/dL | Cl ([…], time 7 day): 107.6 meq/L | DBIL ([…], time 7 day): 0.094 mg/dL | GLC ([…], time 7 day): 152.2 mg/dL | IP ([…], time 7 day): 8.7 mg/dL | K ([…], time 7 day): 4.6 meq/L | LDH ([…], time 7 day): 230.6 IU/L | Na ([…], time 7 day): 144 meq/L | PL ([…], time 7 day): 179 mg/dL | RALB ([…], time 7 day): 2.7 g/dL | TBIL ([…], time 7 day): 0.1 mg/dL | TC ([…], time 7 day): 100 mg/dL | TG ([…], time 7 day): 30.2 mg/dL | TP ([…], time 7 day): 5.2 g/dL | gamma-GTP ([…], time 7 day): 7 IU/L | A/G ([…], time 14 day): 1.1 | ALP ([…], time 14 day): 2530.2 IU/L | ALT ([…], time 14 day): 69 IU/L | AST ([…], time 14 day): 237.2 IU/L | BUN ([…], time 14 day): 16.6 mg/dL | CRE ([…], time 14 day): 0.2 mg/dL | Ca ([…], time 14 day): 9.7 mg/dL | Cl ([…], time 14 day): 106.8 meq/L | DBIL ([…], time 14 day): 0.3 mg/dL | GLC ([…], time 14 day): 135.6 mg/dL | IP ([…], time 14 day): 8.2 mg/dL | K ([…], time 14 day): 4.1 meq/L | LDH ([…], time 14 day): 250.8 IU/L | Na ([…], time 14 day): 141.8 meq/L | PL ([…], time 14 day): 126.4 mg/dL | RALB ([…], time 14 day): 2.5 g/dL | TBIL ([…], time 14 day): 0.3 mg/dL | TC ([…], time 14 day): 57.4 mg/dL | TG ([…], time 14 day): 22 mg/dL | TP ([…], time 14 day): 4.8 g/dL | gamma-GTP ([…], time 14 day): 6.6 IU/L | A/G ([…], time 28 day): 1 | ALP ([…], time 28 day): 1953.8 IU/L | ALT ([…], time 28 day): 94 IU/L | AST ([…], time 28 day): 418 IU/L | BUN ([…], time 28 day): 13.5 mg/dL | CRE ([…], time 28 day): 0.2 mg/dL | Ca ([…], time 28 day): 9.1 mg/dL | Cl ([…], time 28 day): 107.8 meq/L | DBIL ([…], time 28 day): 1 mg/dL | GLC ([…], time 28 day): 116.5 mg/dL | IP ([…], time 28 day): 7.6 mg/dL | K ([…], time 28 day): 3.9 meq/L | LDH ([…], time 28 day): 377.5 IU/L | Na ([…], time 28 day): 140.5 meq/L | PL ([…], time 28 day): 96.5 mg/dL | RALB ([…], time 28 day): 2 g/dL | TBIL ([…], time 28 day): 1 mg/dL | TC ([…], time 28 day): 38 mg/dL | TG ([…], time 28 day): 29.8 mg/dL | TP ([…], time 28 day): 4 g/dL | gamma-GTP ([…], time 28 day): 15.2 IU/L
